Measurements reported in US7838674B2, “Tetracyclic lactame derivatives” (Novartis AG, priority 2007, dated 2010).
Structures can show the parent of a compound that is named as a salt.

What was measured:
[1] = tested on: TNF-α release from hPBMCs; assay: Assay for inhibition of TNF-α release from hPBMCs (IFNγ/LPS stimulated); format: cell-based; details: Homo sapiens, IFNγ (10 ng/ml) and LPS (5 μg/ml), 3 h
Method: Assay for Inhibition of TNF-α Release from hPBMCs
Human peripheral blood mononuclear cells (hPBMCs) are prepared from the peripheral blood of healthy volunteers using Ficoll-Plaque Plus (Amersham) density separation according to the method described within. Cells are seeded at a 1×10^5 cells/well in 96-well plates in RPMI 1640 medium (Invitrogen) containing 10% (v/v) fetal calf serum (FCS). Cells are pre-incubated with serial dilutions of test compound (0.25% v/v DMSO final) for 30 min at 37° C. Cells are stimulated with the addition of IFNγ (10 ng/ml) and lipopolysaccharide(LPS) (5 μg/ml) per well and incubated for 3 h at 37° C. Following a brief centrifugation (250×g for 2 min), supernatant (10 μl) samples are taken from each well and measured against a TNFα calibration curve using a HTRF TNFα kit (CisBio) as described within.
Using the TNF-α release assay described above, compounds of the formula I can be shown to have the following inhibition values: […]

human MK2 = human MK2 (Homo sapiens, UniProt P49137); assay: MAPKAPK2 kinase assay (TR-FRET, Hsp27 peptide substrate)
Chain of human MK2 (P49137 whole entry): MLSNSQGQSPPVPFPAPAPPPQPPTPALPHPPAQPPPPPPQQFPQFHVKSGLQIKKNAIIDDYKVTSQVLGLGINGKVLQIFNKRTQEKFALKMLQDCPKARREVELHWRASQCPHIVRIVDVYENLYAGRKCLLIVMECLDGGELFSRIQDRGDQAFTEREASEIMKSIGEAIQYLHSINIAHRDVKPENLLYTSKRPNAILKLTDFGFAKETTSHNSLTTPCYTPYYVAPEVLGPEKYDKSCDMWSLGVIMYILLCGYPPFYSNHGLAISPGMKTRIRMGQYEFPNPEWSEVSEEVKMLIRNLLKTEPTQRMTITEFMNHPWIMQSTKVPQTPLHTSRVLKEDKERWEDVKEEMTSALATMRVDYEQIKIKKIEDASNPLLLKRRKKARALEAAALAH

[2] = target: T1, MAPKAPK2 enzyme (HIS-MK2, Invitrogen PV4019) (Homo sapiens, UniProt P49137); assay: Alternative MAPKAPK2 assay (Caliper microfluidic mobility shift, HSP27-peptide); format: biochemical; details: HIS-MK2 0.013 nM, ATP 10 μM, 60 min at 30° C.
T1 construct: His; purchased Invitrogen PV4019
T1 sequence (P49137 whole entry): as above

Row | Compound | IC50 [1] | IC50 (human MK2) | IC50 [2]
1 | COCCOc1cncc(-c2cc3c(cn2)CCc2c-3[nH]c3c2C(=O)NCC32CC2)c1 [Example 1, 2-(1-Aminomethyl-cyclopropyl)-8-[5-(2-methoxy-ethoxy)-pyridin-3-yl]-4,5-dihydro-1H-pyrrolo[2,3-f]isoquinoline-3-carboxylic acid lactame] | 320 nM | 47 nM | 
2 | COc1ccc(-c2cc3c(cn2)CCc2c-3[nH]c3c2C(=O)NC2(CC2)C3)cc1 [Example 40, 2-(1-Amino-cyclopropylmethyl)-8-(4-methoxy-phenyl)-4,5-dihydro-1H-pyrrolo[2,3-f]isoquinoline-3-carboxylic acid lactam] | 220 nM |  | 
3 | COc1cncc(-c2cc3c(cn2)CCc2c-3[nH]c3c2C(=O)NC2(CCC2)C3)c1 [Example 99, 2-(1-Amino-cyclobutylmethyl)-8-(5-methoxy-pyridin-3-yl)-4,5-dihydro-1H-pyrrolo[2,3-f]isoquinoline-3-carboxylic acid lactam] | 311 nM |  | 72 nM
4 | Cc1ccc(-c2cc3c(cn2)CCc2c-3[nH]c3c2C(=O)NC2(CCC2)C3)cn1 [Example 103, 2-(1-Amino-cyclobutylmethyl)-8-(6-methyl-pyridin-3-yl)-4,5-dihydro-1H-pyrrolo[2,3-f]isoquinoline-3-carboxylic acid lactam] | 336 nM |  | 57 nM
5 | N#Cc1ccc(-c2cc3c(cn2)CCc2c-3[nH]c3c2C(=O)NCC32CC2)cn1 [Example 127, 2-(1-Aminomethyl-cyclopropyl)-8-(6-cyano-pyridin-3-yl)-4,5-dihydro-1H-pyrrolo[2,3-f]isoquinoline-3-carboxylic acid lactam] | 264 nM |  | 
6 | Cn1c2c(c3c1C1(CNC1)CNC3=O)CCc1cnc(-c3ccc(C(F)(F)F)nc3)cc1-2 [Example 169, 2-(3-Aminomethyl-azetidin-3-yl)-8-(6-trifluoromethyl-pyridin-3-yl)-1-methyl-4,5-dihydro-1H-pyrrolo[2,3-f]isoquinoline-3-carboxylic acid lactam hydrochloride] |  | 93 nM | 
7 | CN1CC2(CNC(=O)c3c2[nH]c2c3CCc3cnc(-c4ccccc4F)cc3-2)C1 [Example 172, 2-(3-Aminomethyl-1-methyl-azetidin-3-yl)-8-(2-fluoro-phenyl)-4,5-dihydro-1H-pyrrolo[2,3-f]isoquinoline-3-carboxylic acid lactam] | 347 nM |  | 
8 | CC(C)Oc1ccc(-c2cc3c(cn2)CCc2c-3[nH]c3c2C(=O)NCC32CN(C)C2)cn1 [Example 185, 2-(3-Aminomethyl-1-methyl-azetidin-3-yl)-8-(6-isopropoxy-pyridin-3-yl)-4,5-dihydro-1H-pyrrolo[2,3-f]isoquinoline-3-carboxylic acid lactam hydrochloride] | 134 nM |  | < 3 nM
9 | O=C1NCC2(CNC2)c2[nH]c3c(c21)CCc1cnc(-c2cccc(Cl)c2)cc1-3 [Example 187, 2-[3-Aminomethyl-azetidin-3-yl]-8-(3-chloro-phenyl)-4,5-dihydro-1H-pyrrolo[2,3-f]isoquinoline-3-carboxylic acid lactam hydrochloride] | 156 nM |  | < 3 nM
10 | O=C1NC2(CC2)C2(CC2)c2[nH]c3c(c21)CCc1cnc(-c2cccc(F)c2)cc1-3 [Example 195, 2-(1′-Amino-bicyclopropyl-1-yl)-8-(3-fluoro-phenyl)-4,5-dihydro-1H-pyrrolo[2,3-f]isoquinoline-3-carboxylic acid lactam] | 333 nM |  | 
11 | COc1ccc(-c2ncc3c(n2)-c2[nH]c4c(c2CC3)C(=O)NCC42CN(C)C2)cc1 [Example 207, 2-(3-Aminomethyl-1-methyl-azetidin-3-yl)-8-(4-methoxy-phenyl)-4,5-dihydro-1H-1,7,9-triaza-cyclopenta[a]naphthalene-3-carboxylic acid lactam] | 130 nM |  | 
12 | COCc1ccc(CNC(=O)c2cccc(-c3cc4c(cn3)CCc3c-4[nH]c4c3C(=O)NC3(CC3)C4)c2)cc1 [Example 273] |  | 19 nM | 

Next, values leading:

Row | IC50 [1] | IC50 (human MK2) | IC50 [2] | Compound
13 |  | 16 nM |  | COc1ccc(CNC(=O)c2cccc(-c3cc4c(cn3)CCc3c-4[nH]c4c3C(=O)NC3(CC3)C4)c2)cn1 [Example 274]
14 |  | 20 nM |  | C[C@H](NC(=O)c1cccc(-c2cc3c(cn2)CCc2c-3[nH]c3c2C(=O)NC2(CC2)C3)c1)c1ccccc1 [Example 275]
15 |  | 11 nM |  | O=C(NCc1ccccc1)c1cccc(-c2cc3c(cn2)CCc2c-3[nH]c3c2C(=O)NC2(CC2)C3)c1 [Example 276, 2-(1-Amino-cyclopropylmethyl)-8-(3-benzylcarbamoyl)-phenyl-4,5-dihydro-1H-pyrrolo[2,3-f]isoquinoline-3-carboxylic acid lactam]
16 | 256 nM |  | 29 nM | O=C1NCC2(CC2)c2[nH]c3c(c21)CCc1cnc(-c2ccc(CN4CCOCC4)c(F)c2)cc1-3 [Example 301, 2-(3-Fluoro-4-morpholin-4-ylmethyl-phenyl)-10-spirocyclopropyl-5,6,8,9,10,11-exahydro-3,8,11-triaza-benzo[a]fluoren-7-one]
17 |  | 12 nM |  | N#Cc1cc(-c2cc3c(cn2)CCc2c-3[nH]c3c2C(=O)NCC32CC2)ccc1OCCN1CCOCC1 [Example 305, 2-(2-Morpholin-4-yl-ethoxy)-5-(7-oxo-10-spirocyclopropyl-6,7,8,9,10,11-hexahydro-5H-3,8,11-triaza-benzo[a]fluoren-2-yl)-benzonitrile]
18 |  | 9 nM |  | CN1CCN(c2ccc(-c3cc4c(cn3)CCc3c-4[nH]c4c3C(=O)NCC43CC3)cc2C#N)CC1 [Example 306, 2-(4-Methyl-piperazin-1-yl)-5-(7-oxo-10-spirocyclopropyl-6,7,8,9,10,11-hexahydro-5H-3,8,11-triaza-benzo[a]fluoren-2-yl)-benzonitrile]
19 |  | 14 nM |  | N#Cc1cc(-c2cc3c(cn2)CCc2c-3[nH]c3c2C(=O)NCC32CC2)ccc1N1CCOCC1 [Example 307, 2-Morpholin-4-yl-5-(7-oxo-10-spirocyclopropyl-6,7,8,9,10,11-hexahydro-5H-3,8,11-triaza-benzo[a]fluoren-2-yl)-benzonitrile]
20 |  | 15 nM |  | CN(C)CCOc1ccc(-c2cc3c(cn2)CCc2c-3[nH]c3c2C(=O)NCC32CC2)cc1C#N [Example 308, 2-(2-Dimethylamino-ethoxy)-5-(7-oxo-10-spirocyclopropyl-6,7,8,9,10,11-hexahydro-5H-3,8,11-triaza-benzo[a]fluoren-2-yl)-benzonitrile]
21 |  | 20 nM |  | COCCOc1ccc(-c2cc3c(cn2)CCc2c-3[nH]c3c2C(=O)NCC32CC2)cc1C#N [Example 309, 2-(2-Methoxy-ethoxy)-5-(7-oxo-10-spirocyclopropyl-6,7,8,9,10,11-hexahydro-5H-3,8,11-triaza-benzo[a]fluoren-2-yl)-benzonitrile]
22 |  | 97 nM |  | COCCOc1cc(-c2cc3c(cn2)CCc2c-3[nH]c3c2C(=O)NCC32CC2)ccc1F [Example 310, 2-[4-Fluoro-3-(2-methoxy-ethoxy)-phenyl]-10-spirocyclopropyl-5,6,8,9,10,11-hexahydro-3,8,11-triaza-benzo[a]fluoren-7-one]
23 |  | 27 nM | 27 nM | CN(C)CCOc1cc(-c2cc3c(cn2)CCc2c-3[nH]c3c2C(=O)NCC32CC2)ccc1F [Example 311, 2-[3-(2-Dimethylamino-ethoxy)-4-fluoro-phenyl]-10-spirocyclopropyl-5,6,8,9,10,11-hexahydro-3,8,11-triaza-benzo[a]fluoren-7-one]
24 |  | 15 nM | 15 nM | N#Cc1cc(-c2cc3c(cn2)CCc2c-3[nH]c3c2C(=O)NCC32CC2)ccc1N1CCC(O)C1 (centres unmarked) [Example 312, 2-(3-Hydroxy-pyrrolidin-1-yl)-10-spirocyclopropyl-5-(7-oxo-6,7,8,9,10,11-hexahydro-5H-3,8,11-triaza-benzo[a]fluoren-2-yl)-benzonitrile]
